# Measured values: patent US20120107323A1, “KINASE PROTEIN BINDING INHIBITORS” (University of Florida, priority 2009, published 2012)
# Legend:
# [1] = test system: BxPC3 pancreatic cancer cells; test: Cell viability (MTT), BxPC3; type: cell-based; conditions: Homo sapiens, BXPC-3; BxPC3, 72 hours; read-out: IC50 of INT2-31, cell viability
# Protocol: Cell viability (MTT) and CFSE Proliferation assay: Cells were plated in 96-well plates and let adhere overnight. After cell treatment, cell viability was measured by 3-(4,5-dimethylthiazol-2-yl)-2,5-diphenyl tetrazolium bromide (MTT) assay (CellTiter 96® Aqueous, Promega, Madison, Wis.).
# Cell viability and detachment assays: After cells were treated with siRNA transfection, cell viability was measured by 3-(4,5-dimethylthiazol2-yl)-2,5-diphenyl tetrazolium bromide (MTT) assay (CellTiter 96® AQueous, Promega, Madison, Wis.). Briefly, 20 μl of the tetrazolium compound was added to each well. The cells were then incubated at 37° C. for 1 h. The plate was read at 490 nm with a plate reader to determine the viability. In detachment assays, detached and attached cells were harvested separately and counted in a hemocytometer. The percentage of detachment was calculated by dividing the number of detached cells by the total number of cells. Apoptosis assays: After treatment, attached and detached cells were collected, counted and prepared for terminal uridine deoxynucleotidyl transferase (TUNEL) assay by utilizing an APO-BRDU kit (BD Pharmingen, San Diego, Calif.) according to the manufacturer's instructions. Stained cells were analyzed with a fluorescence-activated cell sorting-Calibur flow cytometer (BD Biosciences). […] Apoptotic cells were also analyzed by Hoechst staining. […]
# [2] = test system: FAK and IGF-1R pathway effectors; test: Western blot of signaling in melanoma cell lines; type: cell-based, human
# From the text: Computational Docking The crystal structures of the N-terminal domain of FAK (PDB code 2AL6) (22) and the kinase domain of IGF-1R(PDB 1P40A) (23) were utilized for in silico molecular modeling of their interaction as previously described. The three-dimensional coordinates of compound NSC344553 (INT2-31), obtained from the database of the National Cancer Institute, Developmental Therapeutics Program (NCI/DTP), were docked onto the predicted interface of the amino-terminus of FAK (amino acids 127-243) with the intracytoplasmic portion of IGF-1R (21). All docking calculations were performed with the University of California-San Francisco DOCK 5.1 program, using a clique-matching algorithm to orient small molecule structures with sets of spheres that describe the target sites on FAK (37). 100 orientations were created for NSC344553 in the target site and were scored using the computer program grid-based scoring function. Docking calculations were performed on the University of Florida High Performance Computing supercomputing cluster (http:hpc.ufl.edu). The intermolecular energies for all configurations of NSC 344553 in binding to FAK-NT2 were calculated as the sum of electrostatic and van der Waals energies. These energy terms were evaluated as correlation functions, which were computed efficiently with Fast Fourier Transforms. Production of GST-fusion proteins: The FAK-GST plasmid constructs (pGEX vector) were kindly provided by Dr. Elena Kurenova (Roswell Park Cancer Institute, Buffalo, N.Y.). His-tagged IGF-1R protein was purchased from Blue Sky Biotechnology (Worchester, Mass.). The GST-fusion proteins (FAK fragments) were expressed in BL21 (DE3) Escherichia coli bacteria by incubation with 0.2 mM isopropyl b-D-galactopyranoside (IPTG) for 6 h at 37° C. The bacteria were lysed by sonication, and the fusion proteins were purified with glutathione-Sepharose 4B beads (GE Healthcare, NJ). Pull-down assay: For the pull-down binding assay, His-tagged IGF-1R fragment protein (200 ng) were precleared with GST immobilized on glutathione-Sepharose 4B beads. The precleared His-tagged protein was incubated with 0.2 μg of GST-FAK fusion protein immobilized on the glutathione-Sepharose 4B beads for 1 h at 4° C. and then washed 3× with PBS. Equal amounts of GST-fusion proteins were used for each binding assay. Bound proteins were boiled in 6× Laemmli buffer and analyzed by SDS-PAGE and Western blotting. Immunoprecipitation and western blotting: Cells were washed twice with ice cold 1×PBS and lysed in buffer containing 20 mM Tris, pH 7.4, 150 mM NaCl, 1% NP-40, 5 mM EDTA acid, protease inhibitors (Complete™ Protease Inhibitor, Roche, N.J.) and phosphatase inhibitors (Calbiochem, Calif.). For immunoprecipitation, 100-200 μg of total cell extract was used for each sample. The extracts were incubated with 1 μg of antibody overnight at 4° C. Next, 25 μl of protein A/G-agarose beads were added and the samples were incubated for 2 h at 4° C. The precipitates were washed 4× with lysis buffer and samples containing 30 μg of protein were resolved by SDS-PAGE. The intensity of the bands in the western blots was measured with scion image analysis software program. Short hairpin RNA Transfection of cells: Control shRNA (mock) and FAK shRNAs was obtained from Open Biosystems. The sequences of short hairpin RNAs against human FAK were: (5′-[…] TCCAATCGTTTTG-3′; 5′-[…]-3′) and control shRNA (mock) (5′-[…]-3′). For the transfection of cells (2×10^5 cells/well) were seeded into 6-well plates in 2 ml medium one day prior to transfection. According to the protocols of the manufacturer, cells were transfected using Lipofectamine 2000 reagent (Invitrogen, CA).
# Western blotting: boiled samples containing 30 μg of protein were resolved by sodium dodecyl sulfate-polyacrylamide gel electrophoresis followed by transferring to polyvinylidene difluoride membrane (Bio-Rad, Hercules, Calif.). […]
# [3] = test system: PARP, caspase-9, caspase 8; test: Western blot of biochemical markers of the apoptotic pathway; type: cell-based
structure (smiles),measurement,setting,value
"CSc1ncnc2c1ccn2C1O[C@H](COP(=O)(O)O)[C@@H](O)[C@H]1O (stereo partly drawn) [INT2-31, 4-(Methylthio)-7-(5-O-phosphono-D-ribofuranosyl)-{7H-Pyrrolo[2,3-d]pyrimidine}]",IC50,[1],45.6 µM
same,dose necessary to significantly decrease p-Akt,[2]; A375 cells,1 to 5 µM
same,time course of Akt phosphorylation,"[2]; C8161, 5 μM, 24, 48 and 72 hours",some dephosphorylation after 24 hours of treatment with a sustained effect at 72 hours
same,dose necessary to significantly decrease p-Akt,[2]; SK-MEL-28 cells,5 to 10 µM
same,p-ERK,"[2]; all cell lines, higher doses",slight decrease
same,constitutive and IGF-1 induced signaling to AKT,[2]; three melanoma cell lines,consistent inhibition
same,constitutive or IGF-1 induced phosphorylation of IGF-1R,[2]; three melanoma cell lines,no significant effect
same,constitutive phosphorylation of FAK,[2]; three melanoma cell lines,no significant effect
same,PARP and caspase-9 cleavage,[3]; 48 hours of treatment,PARP and caspase-9 cleavage
same,caspase 8 levels,[3]; Western blot,no significant effect
